Laboratory results published in article PMC11219871, “Epigenetic-based differentiation therapy for Acute Myeloid Leukemia” (Nature Communications, 2024).
Values joined by “and” are separate entries in the source; they are usually repeats but may differ in a detail not shown here. Equal entries are not always repeated.

Key:
[1] = target: T1, HDAC9 (Homo sapiens, UniProt Q9UKV0); experiment: HDAC assay (Eurofins); format: biochemical
T1 construct: purchased Eurofins (contracted assay service)

[2] = test system: LINE-1 DNA methylation in ML-2; experiment: LINE-1 pyrosequencing; format: cell-based, human
Experimental: (§1) DNA methylation of the repetitive element LINE-1 was analyzed using a pyrosequencing technique. […] Cells were washed twice with PBS, and then genomic DNA was extracted using a DNA Kit (Nucleo Spin Tissue, Cat No 74095250, Macherey-Nagel) following the manufacturer's instructions. DNA purity and concentration were measured using a NanoDrop spectrophotometer (Thermo Scientific). A 1 μg amount of genomic DNA was treated and modified using a CpGenome DNA modification Kit (Cat No S7820, Chemicon International) following the manufacturer's instructions. […] [NT]) in a final volume of 25 μL. The resulting biotinylated PCR products were immobilized to Streptavidin Sepharose ® High-Performance beads (GE Healthcare) and processed to yield high-quality ssDNA using the PyroMark Vacuum Prep Workstation (Biotage) according to the manufacturer's instructions. The pyrosequencing reactions were performed using the PyromarkTM ID (Biotage), and sequence analysis was performed using the PyroQ-CpG analysis software (Biotage).

[3] = test system: LINE-1 DNA methylation in HL-60; experiment: LINE-1 pyrosequencing; format: cell-based, human
Experimental: as §1

[4] = test system: LINE-1 DNA methylation in MV4-11; experiment: LINE-1 pyrosequencing; format: cell-based, human
Experimental: as §1

[5] = test system: ML-2; experiment: q-RT-PCR of MYC, CDKN2A, CDKN1A, GATA2, TAL1, CEBPA, SPI1; format: cell-based, human
Experimental: (§2) RNA was extracted with TRIzol Reagent (Invitrogen) according to the manufacturer’s instructions. First, cDNA was synthesized from 1 µg of total RNA using the PrimeScript RT reagent Kit (Perfect Real Time) (Cat No RR037A, TaKaRa) following the manufacturer’s instructions. The quality of cDNA was checked by a multiplex PCR that amplifies PBGD, ABL, BCR and β2-MG genes. […] The following program conditions were used for the q-PCR: 50 °C for 2 min, 95 °C for 60 s following by 45 cycles at 95 °C for 15 s and 60 °C for 60 s; melting program, one cycle at 95 °C for 15 s, 40 °C for 60 s, and 95 °C for 15 s. The relative expression of each gene was quantified by the […] method using the gene GUS as an endogenous control. The sequence of primers used can be found in Supplementary Table 10.

[6] = test system: MV4-11; experiment: as above; format: cell-based, human
Experimental: as §2

[7] = test system: HL-60; experiment: as above; format: cell-based, human
Experimental: as §2

[8] = test system: MOLM-13; experiment: as above; format: cell-based, human
Experimental: as §2

[9] = ML-2, replicates 1-3 (Figure 2E)
[10] = ML-2, replicates 1-3 (Figure 2G)
[11] = ML-2 treated daily for 48 h, replicates (Fig 6G)
[12] = MV4-11, daily treatment for 48 h, replicates 1-3
[13] = HL-60, replicates 1-3 (Figure 2E)
[14] = HL-60, replicates 1-3 (Figure 2G)
[15] = HL-60 treated daily for 48 h, replicates (Fig 6F)
[16] = MOLM-13, daily treatment for 48 h, replicates 1-3

T1 sequence (Q9UKV0 whole entry): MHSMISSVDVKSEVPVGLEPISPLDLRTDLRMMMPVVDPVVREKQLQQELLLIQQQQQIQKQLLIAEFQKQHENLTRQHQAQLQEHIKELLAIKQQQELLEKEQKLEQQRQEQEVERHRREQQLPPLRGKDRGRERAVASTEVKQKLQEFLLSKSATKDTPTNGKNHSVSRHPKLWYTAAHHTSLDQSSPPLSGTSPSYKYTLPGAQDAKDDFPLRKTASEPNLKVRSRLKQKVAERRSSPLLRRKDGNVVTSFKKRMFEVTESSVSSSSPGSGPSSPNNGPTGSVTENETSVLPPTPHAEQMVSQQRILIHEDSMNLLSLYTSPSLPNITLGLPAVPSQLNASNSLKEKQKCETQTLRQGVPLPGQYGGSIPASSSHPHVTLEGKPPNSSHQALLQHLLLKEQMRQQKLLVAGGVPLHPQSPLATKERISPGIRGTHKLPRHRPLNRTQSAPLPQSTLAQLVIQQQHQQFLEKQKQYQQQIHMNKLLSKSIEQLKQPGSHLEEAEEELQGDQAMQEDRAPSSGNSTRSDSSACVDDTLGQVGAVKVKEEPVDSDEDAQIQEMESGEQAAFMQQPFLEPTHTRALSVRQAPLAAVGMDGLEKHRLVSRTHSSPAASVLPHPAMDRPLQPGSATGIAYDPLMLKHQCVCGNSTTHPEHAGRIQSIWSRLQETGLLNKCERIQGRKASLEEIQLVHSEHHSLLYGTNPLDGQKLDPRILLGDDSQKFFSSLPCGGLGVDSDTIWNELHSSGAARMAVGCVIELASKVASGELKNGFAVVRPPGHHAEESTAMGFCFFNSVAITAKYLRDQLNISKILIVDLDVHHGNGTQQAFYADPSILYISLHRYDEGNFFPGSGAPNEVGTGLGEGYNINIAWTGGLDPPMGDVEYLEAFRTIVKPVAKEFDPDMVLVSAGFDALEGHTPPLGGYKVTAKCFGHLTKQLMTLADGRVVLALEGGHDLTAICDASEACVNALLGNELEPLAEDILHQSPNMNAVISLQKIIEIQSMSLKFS

COc1cc2nc(-c3ccc(C)o3)cc(NCC3CCN(c4ncc(C(=O)NO)cn4)CC3)c2cc1OC [CM-444, 2-[4-[[[6,7-dimethoxy-2-(5-methyl-2-furyl)-4-quinolyl]amino]methyl]-1-piperidyl]pyrimidine-5-carbohydroxamic acid]
IC50 [1]: 90 nM
inhibition at 10 µM ([1]; 10 µM): 98%
LINE-1 methylation (%) CG Position 1 ([2]; ML-2, 48 hours): 65% and 67%
LINE-1 methylation (%) CG Position 2 ([2]; ML-2, 48 hours): 73%
LINE-1 methylation (%) CG Position 3 ([2]; ML-2, 48 hours): 77% and 81%
LINE-1 methylation (%) CG Position 4 ([2]; ML-2, 48 hours): 86% and 88%
LINE-1 methylation (%) CG Position 5 ([2]; ML-2, 48 hours): 56% and 64%
LINE-1 methylation (%) CG Position 1 ([2]; ML-2, 10 days): 61% and 57%
LINE-1 methylation (%) CG Position 2 ([2]; ML-2, 10 days): 48% and 46%
LINE-1 methylation (%) CG Position 3 ([2]; ML-2, 10 days): 66% and 62%
LINE-1 methylation (%) CG Position 4 ([2]; ML-2, 10 days): 64% and 60%
LINE-1 methylation (%) CG Position 5 ([2]; ML-2, 10 days): 46% and 44%
LINE-1 methylation (%) CG Position 1 ([3]; 48 h, 0.27 µM): 97%
LINE-1 methylation (%) CG Position 2 ([3]; 48 h, 0.27 µM): 83%
LINE-1 methylation (%) CG Position 3 ([3]; 48 h, 0.27 µM): 100%
LINE-1 methylation (%) CG Position 4 ([3]; 48 h, 0.27 µM): 100%
LINE-1 methylation (%) CG Position 5 ([3]; 48 h, 0.27 µM): 73%
LINE-1 methylation (%) CG Position 1 Replicate 1 ([3]; HL-60, 48 h): 96%
LINE-1 methylation (%) CG Position 1 Replicate 2 ([3]; HL-60, 48 h): 98%
LINE-1 methylation (%) CG Position 2 Replicate 1 ([3]; HL-60, 48 h): 84%
LINE-1 methylation (%) CG Position 2 Replicate 2 ([3]; HL-60, 48 h): 82%
LINE-1 methylation (%) CG Position 3 Replicate 1 ([3]; HL-60, 48 h): 100%
LINE-1 methylation (%) CG Position 3 Replicate 2 ([3]; HL-60, 48 h): 100%
LINE-1 methylation (%) CG Position 4 Replicate 1 ([3]; HL-60, 48 h): 100%
LINE-1 methylation (%) CG Position 4 Replicate 2 ([3]; HL-60, 48 h): 100%
LINE-1 methylation (%) CG Position 5 Replicate 1 ([3]; HL-60, 48 h): 72%
LINE-1 methylation (%) CG Position 5 Replicate 2 ([3]; HL-60, 48 h): 74%
LINE-1 methylation (%) CG Position 1 ([3]; HL-60, 10 days): 77% and 81%
LINE-1 methylation (%) CG Position 2 ([3]; HL-60, 10 days): 66% and 70%
LINE-1 methylation (%) CG Position 3 ([3]; HL-60, 10 days): 71% and 75%
LINE-1 methylation (%) CG Position 4 ([3]; HL-60, 10 days): 86% and 88%
LINE-1 methylation (%) CG Position 5 ([3]; HL-60, 10 days): 65% and 63%
LINE-1 methylation (%) CG Position 1 ([4]; MV4-11, 48 hours): 83% and 85%
LINE-1 methylation (%) CG Position 2 ([4]; MV4-11, 48 hours): 79% and 77%
LINE-1 methylation (%) CG Position 3 ([4]; MV4-11, 48 hours): 99% and 97%
LINE-1 methylation (%) CG Position 4 ([4]; MV4-11, 48 hours): 100%
LINE-1 methylation (%) CG Position 5 ([4]; MV4-11, 48 hours): 70% and 66%
LINE-1 methylation (%) CG Position 1 ([4]; MV4-11, 5 days): 80% and 82%
LINE-1 methylation (%) CG Position 2 ([4]; MV4-11, 5 days): 79% and 77%
LINE-1 methylation (%) CG Position 3 ([4]; MV4-11, 5 days): 77%
LINE-1 methylation (%) CG Position 4 ([4]; MV4-11, 5 days): 91% and 89%
LINE-1 methylation (%) CG Position 5 ([4]; MV4-11, 5 days): 65% and 67%
q-PCR of CDKN1A (p21), log10 (2-ΔΔCt) [5, 9]: 1.227 and 1.353 and 1.599
q-PCR of CDKN2A (p16), log10 (2-ΔΔCt) [5, 9]: 0.6515 and 0.5026 and 0.5454
q-PCR of MYC, log10 (2-ΔΔCt) [5, 9]: -1.502 and -1.26 and -1.4
q-PCR of CEBPA, log10 (2-ΔΔCt) [5, 10]: 0.9236 and 1.002 and 0.879
q-PCR of GATA2, log10 (2-ΔΔCt) [5, 10]: 2.413 and 2.636 and 2.689
q-PCR of SPI1 (PU.1), log10 (2-ΔΔCt) [5, 10]: 0.5237 and 0.6236 and 0.7619
q-PCR of TAL1 (SCL), log10 (2-ΔΔCt) [5, 10]: 0.9258 and 1.226 and 0.9453
q-PCR of CEBPA [5, 11]: 1.15 log10 (2-ΔΔCt) and 1.105 log10 (2-ΔΔCt) and 1.112 log10 (2-ΔΔCt)
q-PCR of GATA2 [5, 11]: 1.841 log10 (2-ΔΔCt) and 1.852 log10 (2-ΔΔCt) and 1.8708 log10 (2-ΔΔCt)
q-PCR of MYC [5, 11]: -0.8138 log10 (2-ΔΔCt) and -0.7958 log10 (2-ΔΔCt) and -0.772 log10 (2-ΔΔCt)
q-PCR of SPI1 [5, 11]: 0.6179 log10 (2-ΔΔCt) and 0.715 log10 (2-ΔΔCt) and 0.7068 log10 (2-ΔΔCt)
q-PCR of TAL1 [5, 11]: 0.9832 log10 (2-ΔΔCt) and 1.433 log10 (2-ΔΔCt) and 0.7663 log10 (2-ΔΔCt)
q-PCR of CEBPA, log10 (2-ΔΔCt) [6, 12]: 1.345 and 1.361 and 1.2654
q-PCR of GATA2, log10 (2-ΔΔCt) [6, 12]: 2.051 and 2.02 and 2.0001
q-PCR of MYC, log10 (2-ΔΔCt) [6, 12]: -0.5124 and -0.645 and -0.6461
q-PCR of SPI1, log10 (2-ΔΔCt) [6, 12]: 0.5839 and 0.521 and 0.5293
q-PCR of TAL1, log10 (2-ΔΔCt) [6, 12]: 0.7218 and 0.3689 and 0.9897
CDKN1A log10 (2-ΔΔCt) ([6]; MV4-11, q-PCR): 0.9858 and 0.7237 and 0.8689
CDKN2A log10 (2-ΔΔCt) ([6]; MV4-11, q-PCR): 1.137 and 1.036 and 1.001
CEBPA log10 (2-ΔΔCt) ([6]; MV4-11, q-PCR): 1.693 and 1.502 and 1.597
MYC log10 (2-ΔΔCt) ([6]; MV4-11, q-PCR): -0.5932 and -0.4926 and -0.5131
SPI1 log10 (2-ΔΔCt) ([6]; MV4-11, q-PCR): 0.3258
TAL1 log10 (2-ΔΔCt) ([6]; MV4-11, q-PCR): 0.527 and 0.4921 and 0.4657
q-PCR of CDKN1A (p21), log10 (2-ΔΔCt) [7, 13]: 1.981 and 1.653 and 1.57
q-PCR of CDKN2A (p16), log10 (2-ΔΔCt) [7, 13]: 0.3125 and 0.3822 and 0.4047
q-PCR of MYC, log10 (2-ΔΔCt) [7, 13]: -0.5893 and -0.4826 and -0.451
q-PCR of CEBPA, log10 (2-ΔΔCt) [7, 14]: 0.7569 and 0.6258 and 0.5709
q-PCR of GATA2, log10 (2-ΔΔCt) [7, 14]: 1.013 and 0.858 and 0.8451
q-PCR of SPI1 (PU.1), log10 (2-ΔΔCt) [7, 14]: 0.7127 and 0.6825 and 0.8316
q-PCR of TAL1 (SCL), log10 (2-ΔΔCt) [7, 14]: 0.1258 and 0.2369 and 0.3382
q-PCR of CEBPA [7, 15]: 1.462 log10 (2-ΔΔCt) and 1.7754 log10 (2-ΔΔCt) and 1.81 log10 (2-ΔΔCt)
q-PCR of GATA2 [7, 15]: 0.8764 log10 (2-ΔΔCt) and 0.8459 log10 (2-ΔΔCt) and 0.7844 log10 (2-ΔΔCt)
q-PCR of MYC [7, 15]: -0.6475 log10 (2-ΔΔCt) and -0.7277 log10 (2-ΔΔCt) and -0.6044 log10 (2-ΔΔCt)
q-PCR of SPI1 [7, 15]: 0.6661 log10 (2-ΔΔCt) and 0.715 log10 (2-ΔΔCt) and 0.8576 log10 (2-ΔΔCt)
q-PCR of TAL1 [7, 15]: 2.167 log10 (2-ΔΔCt) and 1.539 log10 (2-ΔΔCt) and 2.185 log10 (2-ΔΔCt)
q-PCR of CEBPA, log10 (2-ΔΔCt) [8, 16]: 2.5418 and 2.486 and 2.37
q-PCR of GATA2, log10 (2-ΔΔCt) [8, 16]: 1.451 and 1.32 and 1.2001
q-PCR of MYC, log10 (2-ΔΔCt) [8, 16]: -0.5166 and -0.6125 and -0.4922
q-PCR of SPI1, log10 (2-ΔΔCt) [8, 16]: 0.3255 and 0.2581 and 0.1964
q-PCR of TAL1, log10 (2-ΔΔCt) [8, 16]: 1.582 and 1.681 and 1.836
CDKN1A log10 (2-ΔΔCt) ([8]; MOLM-13, q-PCR): 0.9026 and 0.7158 and 0.9504
CDKN2A log10 (2-ΔΔCt) ([8]; MOLM-13, q-PCR): 0.7237 and 0.7926 and 0.8396
CEBPA log10 (2-ΔΔCt) ([8]; MOLM-13, q-PCR): 1.789 and 1.635 and 1.622
GATA2 log10 (2-ΔΔCt) ([8]; MOLM-13, q-PCR): 0.9826 and 1.026 and 1.05
MYC log10 (2-ΔΔCt) ([8]; MOLM-13, q-PCR): -0.5821 and -0.5713 and -0.4455
SPI1 log10 (2-ΔΔCt) ([8]; MOLM-13, q-PCR): 0.02369 and 0.04258 and 0.1281
TAL1 log10 (2-ΔΔCt) ([8]; MOLM-13, q-PCR): 1.526 and 1.626 and 1.825
